Experimental data from ChEMBL document CHEMBL3885861, “Open TG-GATES”.

Organism: Rattus norvegicus
Assay: Open TG-GATES - Regimen: Single
Assay type: toxicity, organism-based, Sprague-Dawley
Parameters: regimen Single, gender Male, age 6 weeks
Settings: in vivo, po, 400 mg/kg, route gavage, dose level High; for APTT / Bas / Eos / Fbg / Hb / Ht / Lym / MCH / MCHC / MCV / Mono / Neu / PT / Plat / RBC / Ret / WBC: tissue Blood; for KIDNEY_L / KIDNEY_R / KIDNEY_TOTAL: tissue Kidney; for LIVER: tissue Liver; for A/G / ALP / ALT / AST / BUN / CRE / Ca / Cl / DBIL / GLC / IP / K / LDH / Na / PL / RALB / TBIL / TC / TG / TP / gamma-GTP: tissue Plasma

Cc1cccc(C)c1OCC(C)N (configuration not stated) [MEXILETINE]
TERMINAL_BW (3 h): 221.2 g | APTT (3 h): 21.7 s | Bas (3 h): 0% | Eos (3 h): 1% | Fbg (3 h): 292.2 mg/dL | Hb (3 h): 12.9 g/dL | Ht (3 h): 39.9% | Lym (3 h): 75.8% | MCH (3 h): 20.5 pg | MCHC (3 h): 32.4% | MCV (3 h): 63.2 fL | Mono (3 h): 2.4% | Neu (3 h): 20.6% | PT (3 h): 16.5 s | Plat (3 h): 108.6 x10_4/uL | RBC (3 h): 632.4 x10_4/ul | Ret (3 h): 7.4% | WBC (3 h): 62.3 x10_2/uL | KIDNEY_L (3 h): 1 g | KIDNEY_R (3 h): 1.1 g | KIDNEY_TOTAL (3 h): 2.1 g | LIVER (3 h): 9.9 g | A/G (3 h): 1.3 | ALP (3 h): 1366.2 IU/L | ALT (3 h): 58.8 IU/L | AST (3 h): 87.6 IU/L | BUN (3 h): 12.2 mg/dL | CRE (3 h): 0.1 mg/dL | Ca (3 h): 10.4 mg/dL | Cl (3 h): 106 meq/L | DBIL (3 h): 0 mg/dL | GLC (3 h): 174.4 mg/dL | IP (3 h): 9.6 mg/dL | K (3 h): 4 meq/L | LDH (3 h): 168 IU/L | Na (3 h): 141 meq/L | PL (3 h): 122.6 mg/dL | RALB (3 h): 3 g/dL | TBIL (3 h): 0.028 mg/dL | TC (3 h): 72.6 mg/dL | TG (3 h): 46 mg/dL | TP (3 h): 5.4 g/dL | gamma-GTP (3 h): 1 IU/L | TERMINAL_BW (6 h): 214.8 g | APTT (6 h): 21.8 s | Bas (6 h): 0% | Eos (6 h): 0.6% | Fbg (6 h): 411.6 mg/dL | Hb (6 h): 13.6 g/dL | Ht (6 h): 42.2% | Lym (6 h): 71.2% | MCH (6 h): 20.7 pg | MCHC (6 h): 32.4% | MCV (6 h): 64 fL | Mono (6 h): 2% | Neu (6 h): 25% | PT (6 h): 16.1 s | Plat (6 h): 109.7 x10_4/uL | RBC (6 h): 660.2 x10_4/ul | Ret (6 h): 7.1% | WBC (6 h): 71.5 x10_2/uL | KIDNEY_L (6 h): 0.9 g | KIDNEY_R (6 h): 0.9 g | KIDNEY_TOTAL (6 h): 1.9 g | LIVER (6 h): 9.6 g | A/G (6 h): 1.2 | ALP (6 h): 1714.4 IU/L | ALT (6 h): 52 IU/L | AST (6 h): 84.2 IU/L | BUN (6 h): 10.2 mg/dL | CRE (6 h): 0.2 mg/dL | Ca (6 h): 10.3 mg/dL | Cl (6 h): 107.2 meq/L | DBIL (6 h): 0 mg/dL | GLC (6 h): 186.8 mg/dL | IP (6 h): 8.5 mg/dL | K (6 h): 4.2 meq/L | LDH (6 h): 190.4 IU/L | Na (6 h): 141.8 meq/L | PL (6 h): 133.2 mg/dL | RALB (6 h): 3 g/dL | TBIL (6 h): 0.02 mg/dL | TC (6 h): 80.4 mg/dL | TG (6 h): 34.8 mg/dL | TP (6 h): 5.7 g/dL | gamma-GTP (6 h): 1.6 IU/L | TERMINAL_BW (9 h): 217.6 g | APTT (9 h): 23.3 s | Bas (9 h): 0% | Eos (9 h): 0.8% | Fbg (9 h): 309.4 mg/dL | Hb (9 h): 12.7 g/dL | Ht (9 h): 39.4% | Lym (9 h): 72.8% | MCH (9 h): 20.3 pg | MCHC (9 h): 32.2% | MCV (9 h): 63 fL | Mono (9 h): 2.6% | Neu (9 h): 23% | PT (9 h): 16.1 s | Plat (9 h): 109.3 x10_4/uL | RBC (9 h): 626.4 x10_4/ul | Ret (9 h): 7.6% | WBC (9 h): 76 x10_2/uL | KIDNEY_L (9 h): 1 g | KIDNEY_R (9 h): 1 g | KIDNEY_TOTAL (9 h): 2 g | LIVER (9 h): 9.5 g | A/G (9 h): 1.3 | ALP (9 h): 1243.2 IU/L | ALT (9 h): 42.8 IU/L | AST (9 h): 65 IU/L | BUN (9 h): 8.6 mg/dL | CRE (9 h): 0.1 mg/dL | Ca (9 h): 10.3 mg/dL | Cl (9 h): 107.2 meq/L | DBIL (9 h): 0 mg/dL | GLC (9 h): 186 mg/dL | IP (9 h): 9.1 mg/dL | K (9 h): 4.2 meq/L | LDH (9 h): 146.4 IU/L | Na (9 h): 141.4 meq/L | PL (9 h): 144.8 mg/dL | RALB (9 h): 3 g/dL | TBIL (9 h): 0.026 mg/dL | TC (9 h): 81.4 mg/dL | TG (9 h): 45.4 mg/dL | TP (9 h): 5.4 g/dL | gamma-GTP (9 h): 1.4 IU/L | TERMINAL_BW (24 h): 225.6 g | APTT (24 h): 20.4 s | Bas (24 h): 0% | Eos (24 h): 1% | Fbg (24 h): 313.6 mg/dL | Hb (24 h): 13.4 g/dL | Ht (24 h): 41% | Lym (24 h): 80% | MCH (24 h): 20.5 pg | MCHC (24 h): 32.8% | MCV (24 h): 62.5 fL | Mono (24 h): 2.6% | Neu (24 h): 15.6% | PT (24 h): 16.3 s | Plat (24 h): 106 x10_4/uL | RBC (24 h): 656.8 x10_4/ul | Ret (24 h): 7.1% | WBC (24 h): 76.9 x10_2/uL | KIDNEY_L (24 h): 1 g | KIDNEY_R (24 h): 1 g | KIDNEY_TOTAL (24 h): 2 g | LIVER (24 h): 10.5 g | A/G (24 h): 1.2 | ALP (24 h): 1526.6 IU/L | ALT (24 h): 50.2 IU/L | AST (24 h): 71.4 IU/L | BUN (24 h): 14.6 mg/dL | CRE (24 h): 0.2 mg/dL | Ca (24 h): 10.6 mg/dL | Cl (24 h): 105 meq/L | DBIL (24 h): 0 mg/dL | GLC (24 h): 182.2 mg/dL | IP (24 h): 8.2 mg/dL | K (24 h): 4.2 meq/L | LDH (24 h): 170.6 IU/L | Na (24 h): 142.6 meq/L | PL (24 h): 163 mg/dL | RALB (24 h): 3.1 g/dL | TBIL (24 h): 0.004 mg/dL | TC (24 h): 89 mg/dL | TG (24 h): 120.2 mg/dL | TP (24 h): 5.6 g/dL | gamma-GTP (24 h): 1.6 IU/L
